Measured values published in patent US8034314B2, “Photoreactive compound specifically binding to calcium binding proteins” (priority 2004, dated 2011).

Columns and labels:
Aldolase = target: T1, Aldolase (Oryctolagus cuniculus, UniProt P00883); test: Aldolase activity; type: biochemical; details: AzRu 100 μM; mean ± SEM
T1 construct: purchased Sigma
Description: (§1) Unlabelled ryanodine was obtained from Calbiochem. […] Ruthenium chloride was purchased from Aldrich.

Ca2+-dependent proteins = test: Activities of Ca2+-dependent proteins (summary of Table 1); type: biochemical; details: at ≦20 μM
[1] = system: glyceraldehyde 3-phosphate dehydrogenase; test: GAP dehydrogenase activity; type: biochemical; details: AzRu 100 μM; mean ± SEM
Description: as §1

(Na+/K+)ATPase = (Na+/K+)ATPase activity; type: biochemical; details: mean ± SEM
Peroxidase = target: T2, Peroxidase (Armoracia rusticana, UniProt P00433); test: Peroxidase activity; type: biochemical, horseradish; details: AzRu 20 μM; mean ± SEM
T2 construct: purchased Sigma
T2 sequence (P00433 31-338): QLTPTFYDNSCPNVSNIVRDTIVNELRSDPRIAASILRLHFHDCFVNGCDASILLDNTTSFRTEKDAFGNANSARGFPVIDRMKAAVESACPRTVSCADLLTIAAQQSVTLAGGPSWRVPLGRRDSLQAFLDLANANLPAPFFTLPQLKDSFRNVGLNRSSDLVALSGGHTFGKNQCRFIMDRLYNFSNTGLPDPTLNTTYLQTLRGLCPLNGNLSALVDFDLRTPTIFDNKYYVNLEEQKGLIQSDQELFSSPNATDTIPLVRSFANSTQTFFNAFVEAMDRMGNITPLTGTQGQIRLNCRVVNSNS
Description: as §1

Glutamate dehydrogenase = Glutamate dehydrogenase activity; type: biochemical; details: AzRu 100 μM; mean ± SEM
Description: as §1

[2] = target: T3, Ca2+-pump (SERCA) of skeletal muscle sarcoplasmic reticulum (Oryctolagus cuniculus, UniProt P04191); test: Ca2+ uptake/accumulation in SR membranes (Ca2+-pump activity); type: biochemical, rabbit
T3 construct: Sarcoplasmic reticulum (SR) membranes were prepared from rabbit fast twitch skeletal muscle; from tissue; host or cells: rabbit fast twitch skeletal muscle SR membranes
T3 sequence (P04191 1-994 isoform P04191-2): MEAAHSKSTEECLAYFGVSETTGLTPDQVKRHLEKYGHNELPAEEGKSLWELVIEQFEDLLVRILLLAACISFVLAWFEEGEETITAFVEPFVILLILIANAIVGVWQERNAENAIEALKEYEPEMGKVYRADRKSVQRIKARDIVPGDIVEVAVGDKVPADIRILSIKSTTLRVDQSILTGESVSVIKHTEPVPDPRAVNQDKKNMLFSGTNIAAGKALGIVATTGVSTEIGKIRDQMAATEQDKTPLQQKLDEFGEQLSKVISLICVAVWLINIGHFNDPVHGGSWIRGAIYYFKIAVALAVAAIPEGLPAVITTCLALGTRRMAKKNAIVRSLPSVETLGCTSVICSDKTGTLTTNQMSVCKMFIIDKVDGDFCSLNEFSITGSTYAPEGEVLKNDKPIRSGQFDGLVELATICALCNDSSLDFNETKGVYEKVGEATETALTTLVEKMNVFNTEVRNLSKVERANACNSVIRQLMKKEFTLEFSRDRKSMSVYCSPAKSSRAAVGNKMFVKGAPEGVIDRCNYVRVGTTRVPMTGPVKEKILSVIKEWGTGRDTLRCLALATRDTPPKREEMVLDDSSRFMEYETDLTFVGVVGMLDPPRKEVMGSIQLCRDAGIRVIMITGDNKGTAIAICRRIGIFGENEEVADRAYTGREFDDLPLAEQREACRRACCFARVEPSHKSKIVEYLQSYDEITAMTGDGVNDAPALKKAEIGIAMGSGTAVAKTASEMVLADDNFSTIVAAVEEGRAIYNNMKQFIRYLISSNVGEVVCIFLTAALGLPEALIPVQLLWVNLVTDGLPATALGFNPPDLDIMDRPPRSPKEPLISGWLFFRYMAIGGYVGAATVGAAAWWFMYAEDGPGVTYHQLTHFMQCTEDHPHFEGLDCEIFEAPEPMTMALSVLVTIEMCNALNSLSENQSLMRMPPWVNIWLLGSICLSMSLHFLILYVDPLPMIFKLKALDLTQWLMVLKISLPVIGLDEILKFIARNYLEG
Method: (§2) Sarcoplasmic reticulum (SR) membranes were prepared from rabbit fast twitch skeletal muscle as described by Saito [Saito et al.: J. Cell Biol. 99 (1984) 875-85]. Mitochondria were isolated from rat liver as described by us previously [Gincel D. et al.: Biochem J. 358 (2001) 147-55]. VDAC was purified by a method developed in our laboratory, using columns of hydroxyapatite and reactive red agarose [Gincel D. et al.: J. Bioenerget. Biomembr. 32 (2000) 571-83].
Ca^2+-accumulation in freshly prepared mitochondria (0.5 mg/ml) was assayed for 1 to 20 minutes at 30° C. in the presence of 225 mM mannitol, 75 mM sucrose, 120 μM CaCl2 (containing 3×10^4 cpm/nmol ^45Ca^2+), 5 mM HEPES/KOH pH 7.0, and 5 mM succinate with 0.1 mM Pi, or 4 mM MgCl2 with 3 mM ATP. The Ca^2+-uptake was terminated by rapid Millipore filtration, followed by a wash with 5 ml of 0.15 M KCl. The Ca^2+-accumulation in SR was determined as described previously [Shoshan-Barmatz V. & Shaineberg A.: Biochim. Biophys. Acta 1065 (1991) 82-8]. Electron transport from succinate to cytochrome c was described in above cited article [Gincel D. et al.: J. Bioenerget. Biomembr. 32 (2000) 571-83].
The preparation of SR membranes from skeletal muscle, and the measurement of Ca^2+-accumulation were carried out as described above.
The hexavalent RuR and the trivalent Ru360 have been employed in various studies as inhibitors of Ca^2+-dependent reactions. As shown here, even with no photoactivation, AzRu, in contrast to RuR and Ru360, was effective in inhibiting the SR Ca^2+-pump (Table 3). […] This may open the way to inhibit other Ca^2+-dependent activities that are not sensitive to RuR, such as the plasma membrane Ca^2+-ATPase. […] RuR was employed to improve mitochondrial production in ischemic reperfused pig myocardium, was employed in the nervous system to follow neuronal death progress and can act as an anti-oxidant in certain conditions. Considering the potent activity of AzRu in RuR-insensitive reactions (see Table 3), its applications in various biological studies should be explored. Ca^2+ accumulation in SR and mitochondria was assayed as described above in the absence and presence of different concentrations of RuR (0.05-100 μM), Ru360 (0.01-100 μM) or AzRu (0.1-100 μM). The concentration required for 50% inhibition (IC50) was derived from the plot of Ca^2+ accumulation activity or ryanodine binding as a function of the reagent concentration. The results are the mean±SEM of 3 to 5 experiments (Table 3).

Pyruvate kinase = target: T4, Pyruvate kinase (Oryctolagus cuniculus, UniProt P11974); test: Pyruvate kinase activity; type: biochemical; details: mean ± SEM
T4 construct: purchased Sigma
T4 sequence (P11974 2-531 limits assumed): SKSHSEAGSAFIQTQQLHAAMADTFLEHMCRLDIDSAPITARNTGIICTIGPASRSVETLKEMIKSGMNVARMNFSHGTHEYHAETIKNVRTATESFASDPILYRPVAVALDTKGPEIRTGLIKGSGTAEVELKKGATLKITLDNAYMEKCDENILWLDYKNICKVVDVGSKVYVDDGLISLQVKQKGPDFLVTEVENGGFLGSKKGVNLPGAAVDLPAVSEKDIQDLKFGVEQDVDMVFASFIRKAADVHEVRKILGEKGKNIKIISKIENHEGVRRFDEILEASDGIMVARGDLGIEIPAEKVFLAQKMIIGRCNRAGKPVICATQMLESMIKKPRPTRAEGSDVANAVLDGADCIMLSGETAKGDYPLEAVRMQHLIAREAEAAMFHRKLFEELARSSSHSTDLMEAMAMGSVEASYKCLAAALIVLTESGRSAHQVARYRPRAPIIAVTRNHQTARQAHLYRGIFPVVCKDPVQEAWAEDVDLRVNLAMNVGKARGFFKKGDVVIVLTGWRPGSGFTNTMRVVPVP
Description: as §1

Lactate dehydrogenase = Lactate dehydrogenase activity; type: biochemical; details: AzRu 100 μM; mean ± SEM
Description: as §1

Alkaline phosphatase = details: AzRu 100 μM; mean ± SEM
Description: Aldolase, alkaline phosphatase, ATP, bovine liver catalase, choline oxidase, CM-cellulose, n-decane, glucose 6-phosphate dehydrogenase, glutamate dehydrogenase, glyceraldehyde 3-phosphate dehydrogenase, Hepes, yeast hexokinase, lactate dehydrogenase, leupeptin, luciferase, mannitol, horseradish peroxidase, PMSF, pyruvate kinase, soybean asolectin, sucrose, Tris and Triton X-100 were purchased from Sigma (St. Louis, Mo., USA). [^45Ca], [^103Ru] and [^3H]ryanodine were purchased from NEN® Life Science Products, Inc. (Boston, USA). Unlabelled ryanodine was obtained from Calbiochem. Sephadex LH-20 was purchased from Amersham Biosciences. n-Octyl-β-D-glucopyranoside (β-OG) was obtained from Bachem AG (Germany). Lauryl-(dimethyl)-amineoxide (LDAO) and ruthenium red (98% pure) were obtained from Fluka (Chemie, GmbH). Ruthenium chloride was purchased from Aldrich. Hydroxyapatite (Bio-Gel HTP) was purchased from Bio-Rad Laboratories (Hercules, Calif.) and Celite from Merck. Synthetic firefly D-luciferin reagent was purchased from Biosynth AG.

Choline oxidase = target: T5, Choline oxidase (Arthrobacter globiformis, UniProt Q7X2H8); test: Choline oxidase activity; type: biochemical; details: AzRu 100 μM; mean ± SEM
T5 construct: purchased Sigma
T5 sequence (Q7X2H8 whole entry, species assumed): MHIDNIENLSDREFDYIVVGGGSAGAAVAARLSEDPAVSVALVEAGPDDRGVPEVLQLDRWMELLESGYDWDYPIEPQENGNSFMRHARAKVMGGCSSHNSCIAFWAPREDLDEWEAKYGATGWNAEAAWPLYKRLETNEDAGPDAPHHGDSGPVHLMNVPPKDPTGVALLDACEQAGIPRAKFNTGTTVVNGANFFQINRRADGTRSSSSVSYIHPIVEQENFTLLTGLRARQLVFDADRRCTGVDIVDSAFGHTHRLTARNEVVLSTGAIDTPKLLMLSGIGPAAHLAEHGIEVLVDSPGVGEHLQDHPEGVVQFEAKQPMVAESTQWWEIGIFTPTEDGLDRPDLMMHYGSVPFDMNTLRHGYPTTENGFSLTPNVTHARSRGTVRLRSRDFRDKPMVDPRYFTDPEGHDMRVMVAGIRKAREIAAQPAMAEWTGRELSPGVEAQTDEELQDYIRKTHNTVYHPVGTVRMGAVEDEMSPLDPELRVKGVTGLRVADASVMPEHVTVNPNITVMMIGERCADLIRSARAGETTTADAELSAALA
Description: as §1

[3] = system: Mg2+-dependent proteins and the Zn2+-sensitive KCNK0 channel; test: Activities of Mg2+-dependent proteins and Zn2+-sensitive KCNK0 channel (summary of Table 1); type: biochemical; details: at 100 μM
[4] = system: glucose 6-phosphate dehydrogenase; test: G-6-P dehydrogenase activity; type: biochemical; details: AzRu 100 μM; mean ± SEM
Description: as §1

[5] = system: Ca2+-dependent mitochondrial swelling (PTP opening); test: Ca2+-dependent mitochondrial swelling (PTP opening); type: biochemical, rat; details: AzRu 20 μM; PTP opening was completely inhibited at this concentration
Method: as §2

Luciferase = target: T6, Luciferase (Photinus pyralis, UniProt P08659); test: Luciferase activity; type: biochemical; details: mean ± SEM
T6 construct: purchased Sigma
T6 sequence (P08659 whole entry): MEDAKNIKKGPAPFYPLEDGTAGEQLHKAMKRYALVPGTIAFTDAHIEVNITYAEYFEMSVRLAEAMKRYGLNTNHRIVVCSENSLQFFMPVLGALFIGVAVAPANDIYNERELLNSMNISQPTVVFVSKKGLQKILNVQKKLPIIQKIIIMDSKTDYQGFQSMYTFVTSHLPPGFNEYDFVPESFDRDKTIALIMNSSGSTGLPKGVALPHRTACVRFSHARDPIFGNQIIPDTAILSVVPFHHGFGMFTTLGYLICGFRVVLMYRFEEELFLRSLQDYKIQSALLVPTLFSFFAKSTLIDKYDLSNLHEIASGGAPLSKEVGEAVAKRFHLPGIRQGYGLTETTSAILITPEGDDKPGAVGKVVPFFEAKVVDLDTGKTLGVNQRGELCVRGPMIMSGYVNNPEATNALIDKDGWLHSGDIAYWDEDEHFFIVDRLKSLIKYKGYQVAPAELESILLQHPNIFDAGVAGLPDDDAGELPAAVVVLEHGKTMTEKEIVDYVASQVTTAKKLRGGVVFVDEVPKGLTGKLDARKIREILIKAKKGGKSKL
Description: as §1

K+ channel (KCKN0) = K+ channel (KCKN0) (Drosophila melanogaster, UniProt Q94526); test: K+ channel (KCKN0) activity; type: biochemical; details: AzRu 20 μM; mean ± SEM
K+ channel (KCKN0), sequence (Q94526 whole entry): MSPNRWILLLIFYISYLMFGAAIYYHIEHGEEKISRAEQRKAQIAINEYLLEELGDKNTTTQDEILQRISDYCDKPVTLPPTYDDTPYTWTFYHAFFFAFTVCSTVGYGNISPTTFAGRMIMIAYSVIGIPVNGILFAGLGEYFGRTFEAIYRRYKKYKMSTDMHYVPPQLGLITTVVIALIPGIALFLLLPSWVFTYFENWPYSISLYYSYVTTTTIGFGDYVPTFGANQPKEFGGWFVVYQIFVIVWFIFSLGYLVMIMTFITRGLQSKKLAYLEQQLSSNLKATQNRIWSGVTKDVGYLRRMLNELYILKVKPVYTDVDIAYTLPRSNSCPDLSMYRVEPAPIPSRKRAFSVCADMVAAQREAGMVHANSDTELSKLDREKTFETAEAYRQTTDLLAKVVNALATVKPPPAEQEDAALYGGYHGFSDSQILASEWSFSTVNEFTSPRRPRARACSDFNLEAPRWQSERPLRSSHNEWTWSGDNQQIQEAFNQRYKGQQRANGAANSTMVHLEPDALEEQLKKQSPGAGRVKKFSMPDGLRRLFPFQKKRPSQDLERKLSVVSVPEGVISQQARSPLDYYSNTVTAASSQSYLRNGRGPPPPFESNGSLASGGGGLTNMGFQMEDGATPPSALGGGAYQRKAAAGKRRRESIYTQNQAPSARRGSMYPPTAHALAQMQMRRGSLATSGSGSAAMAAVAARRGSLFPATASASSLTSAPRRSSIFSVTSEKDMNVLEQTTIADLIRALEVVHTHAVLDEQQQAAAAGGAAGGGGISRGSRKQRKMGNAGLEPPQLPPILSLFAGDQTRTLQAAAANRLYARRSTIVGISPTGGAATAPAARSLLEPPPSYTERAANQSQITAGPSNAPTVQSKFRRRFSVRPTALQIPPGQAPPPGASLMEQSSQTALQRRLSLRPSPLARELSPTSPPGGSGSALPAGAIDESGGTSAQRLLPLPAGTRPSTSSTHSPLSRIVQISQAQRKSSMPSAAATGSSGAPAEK

T1 sequence (P00883 2-364 limits assumed): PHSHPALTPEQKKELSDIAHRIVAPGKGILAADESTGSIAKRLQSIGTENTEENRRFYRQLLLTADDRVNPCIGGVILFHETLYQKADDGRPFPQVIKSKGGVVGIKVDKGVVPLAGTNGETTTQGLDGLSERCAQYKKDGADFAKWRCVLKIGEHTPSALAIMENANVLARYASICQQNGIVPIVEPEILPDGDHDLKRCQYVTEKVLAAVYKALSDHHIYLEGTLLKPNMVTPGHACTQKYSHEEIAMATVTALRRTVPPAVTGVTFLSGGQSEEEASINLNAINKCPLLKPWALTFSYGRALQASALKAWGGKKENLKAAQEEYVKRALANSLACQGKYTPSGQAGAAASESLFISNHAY

In the case of azido-ruthenium [AzRu], the “Activity (% of control), Aldolase” value (Aldolase) is reported as 78 ± 7 % of control, the “Inhibition of activities of Ca2+-dependent proteins” value (Ca2+-dependent proteins) is reported as “up to 90%” and the “Activity (% of control), GAP dehydrogenase” value [1] is reported as 102 ± 5 % of control. The “Activity (% of control), (Na+/K+)ATPase” value ((Na+/K+)ATPase; AzRu 20 μM) was 92 ± 5 % of control, the “Activity (% of control), (Na+/K+)ATPase” value ((Na+/K+)ATPase; AzRu 100 μM) was 71 ± 4 % of control and the “Activity (% of control), Peroxidase” value (Peroxidase) was 39 ± 4 % of control. The “Activity (% of control), Glutamate dehydrogenase” value (Glutamate dehydrogenase) was 101 ± 5 % of control, the IC50 ([2]; +UV (photoactivation), mean ± SEM) was 1010 ± 95 nM and the “Activity (% of control), Ca2+ uptake in SR (SERCA)” value ([2]; AzRu 20 μM, mean ± SEM of 3 to 6 experiments) was 13 ± 6 % of control. For the same substance, the “Change of sensitivity of the Ca2+-pump activity to the reagent by photoactivation” value ([2]; UV irradiation, SR membranes) was “increased more than two-fold”, the IC50 ([2]; no photoactivation, mean ± SEM of 3 to 5 experiments) was 4910 ± 55 nM and the “Activity (% of control), Pyruvate kinase” value (Pyruvate kinase; AzRu 20 μM) was 97 ± 7 % of control. For the same substance, the “Activity (% of control), Pyruvate kinase” value (Pyruvate kinase; AzRu 100 μM) was 81 ± 6 % of control, the “Activity (% of control), Lactate dehydrogenase” value (Lactate dehydrogenase) was 91 ± 4 % of control and the “Activity (% of control), Alkaline phosphatase” value (Alkaline phosphatase) was 86 ± 5 % of control. For the same substance, the “Activity (% of control), Choline oxidase” value (Choline oxidase) was 85 ± 3 % of control, the “Inhibition of activities of Mg2+-dependent proteins and Zn2+-sensitive KCNK0 channel” value [3] was roughly 30% and the “Activity (% of control), G-6-P dehydrogenase” value [4] was 101 ± 7 % of control. The “Activity (% of control), Ca2+-dependent mitochondrial swelling” value [5] was 0 % of control, the “Activity (% of control), Luciferase” value (Luciferase; AzRu 20 μM) was 97 ± 1 % of control and the “Activity (% of control), Luciferase” value (Luciferase; AzRu 100 μM) was 67 ± 3 % of control. For the same substance, the “Activity (% of control), K+ channel (KCKN0)” value (K+ channel (KCKN0)) was 100 ± 0.3 % of control.
